A short description of series [1]: Optical properties of the fluorophores measured in ethanol, compared to ICG. The conditions noted are these: for Φ^a (%): compared to ICG. In kind it is physicochemical. Put shortly:
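Using ethanol as the solvent, the optical behaviour of each fluorophore was characterised relative to a reference dye. The read-outs were the absorption maximum, the emission maximum, the Stokes shift, the quantum yield and the molar extinction coefficient.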

The nature of series [2]: Solvatochromism: absorption maximum in different solvents. In kind it is physicochemical.

With `CCN1C(=CC=C2CCCC(C=C(C#N)C(=O)O)=C2N2CCC(CO)CC2)C(C)(C)c2cc(Br)ccc21` [Compound 82], in series [1], the “Stokes Shift (nm)” value turned out to be 124 nm, the “λabs (nm)” value came to 675 nm, the “λem (nm)” value amounted to 794 nm and the “ϵ (cm^−1 M^−1)” value is given as 61,000 cm^−1 M^−1. For the same molecule, the “Φ^a (%)” value in series [1] stood at 17.3%. For the same molecule, in series [2], the “λabs (nm) Acetonitrile” value is listed as 640 nm, the “λabs (nm) DMSO” value is on record as 670 nm, the “λabs (nm) Ethanol” value worked out at 675 nm and the “λabs (nm) Methanol” value was 665 nm.

As for `CCN1C(=CC=C2CCCC(C=C(C#N)C#N)=C2Cl)C(C)(C)c2cc(Br)ccc21` [Compound 74], in series [1], the “Stokes Shift (nm)” value turned out to be 19 nm, the “λabs (nm)” value stood at 790 nm, the “λem (nm)” value stood at 809 nm and the “ϵ (cm^−1 M^−1)” value is recorded as 152,300 cm^−1 M^−1. Moreover, the “Φ^a (%)” value in series [1] is on record as 11.3%. In addition, in series [2], the “λabs (nm) Acetonitrile” value worked out at 790 nm, the “λabs (nm) DMSO” value came out at 800 nm, the “λabs (nm) Ethanol” value is 790 nm and the “λabs (nm) Methanol” value was determined as 785 nm.

Source of the values: US20250152751A1, “RED-SHIFTED FLUOROPHORES AND METHODS OF USING THE SAME” (GEORGIA STATE UNIVERSITY RESEARCH FOUNDATION, INC., priority 2022, published 2025).
